Where two headings read alike, the source gives them in different places. Positions of bridges follow the written chain, without caps; N, C: chain ends. No end group written: not given here.

This experiment addresses T1, EpoR (Homo sapiens, UniProt P19235).
T1 construct: host or cells: cells included in the PathHunter eXpress EpoR-JAK2 Functional Assay Kit
T1 sequence (P19235 25-508): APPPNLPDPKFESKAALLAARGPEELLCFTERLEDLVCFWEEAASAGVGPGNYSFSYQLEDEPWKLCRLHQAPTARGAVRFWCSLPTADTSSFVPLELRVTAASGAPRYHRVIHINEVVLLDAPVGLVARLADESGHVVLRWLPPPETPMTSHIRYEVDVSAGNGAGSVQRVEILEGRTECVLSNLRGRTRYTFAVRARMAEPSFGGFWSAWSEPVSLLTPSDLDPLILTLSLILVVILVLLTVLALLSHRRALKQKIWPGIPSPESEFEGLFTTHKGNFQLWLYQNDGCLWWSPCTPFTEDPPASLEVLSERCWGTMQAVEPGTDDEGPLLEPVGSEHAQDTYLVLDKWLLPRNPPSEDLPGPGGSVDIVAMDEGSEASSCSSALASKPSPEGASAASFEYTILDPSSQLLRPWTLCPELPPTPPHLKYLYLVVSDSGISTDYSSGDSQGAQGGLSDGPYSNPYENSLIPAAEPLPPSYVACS
As to the kind of experiment: EpoR activation ability, PathHunter eXpress EpoR-JAK2 Functional Assay Kit. Conditions: for maximum activation ability compared with rhEPO: Example 22, FIG. 35; for EpoR activation, concentration dependence: culture supernatant, FIGS. 35, 55 to 57, 61; for EpoR activation, relative activity among linker lengths: Example 38, cell-free translation solution, FIG. 70. Format: cell-based. The procedure: The EpoR activation ability of the EPO-PAS dimer peptide was evaluated using PathHunter (registered trademark) eXpress EpoR-JAK2 Functional Assay Kit (DiscoverX).
(§1) Cells for EPO activity evaluation included in PathHunter (registered trademark) eXpress EpoR-JAK2 Functional Assay Kit were seeded on a 96-well plate and cultured for 24 hours at 37° C. under 5% CO2. […] As a negative control, the culture supernatant (FIG. 32, lane 18) obtained by culturing as described in Example 20 except for using a vector containing no gene for expressing the EPO-PAS dimer peptide, diluted at the same ratio as the culture supernatant containing AET-EPO-PAS8 or AET-EPO-PAS22, was added. The prepared Substrate Reagent was added to the cells stimulated at room temperature for 3 hours, and the cells were incubated for 60 minutes. The chemiluminescence intensity was quantified with a Nivo plate reader (Perkin Elmer).
The EpoR activation ability of the EPO-PAS dimer peptide linker variant was evaluated using PathHunter (registered trademark) eXpress EpoR-JAK2 Functional Assay Kit (DiscoverX).
as §1, with “48,” for “32,”, “26)” for “18)”, “30” for “20”
The EpoR activation ability of the stabilized EPO-PAS dimer peptide was evaluated using PathHunter (registered trademark) eXpress EpoR-JAK2 Functional Assay Kit (DiscoverX).
Cells for EPO activity evaluation included in PathHunter (registered trademark) eXpress EpoR-JAK2 Functional Assay Kit were seeded on a 96-well plate and cultured for 24 hours at 37° C. under 5% CO2. To the cells, a culture supernatant containing 14.2 μg/L to 220 pg/L AET-EPO-PAS22, AET-EPO-PAS22-PAS200, or AET-EPO-PAS22-PAS600 (cultured as described in Example 20 or 33) was added. As a negative control, the culture supernatant (FIG. 58, lane 20) obtained by culturing as described in Example 33 except for using a vector containing no gene for expressing the EPO-PAS dimer peptide, diluted at the same ratio as the culture supernatant containing AET-EPO-PAS22, AET-EPO-PAS22-PAS200, or AET-EPO-PAS22-PAS600, was added. The prepared Substrate Reagent was added to the cells stimulated at room temperature for 3 hours, and the cells were incubated for 60 minutes. The chemiluminescence intensity was quantified with a Nivo plate reader (Perkin Elmer).
Cells for EPO activity evaluation included in PathHunter (registered trademark) eXpress EpoR-JAK2 Functional Assay Kit were seeded on a 96-well plate and cultured for 24 hours at 37° C. under 5% CO2. To the cells, a cell-free translation solution with translated AET-EPO-PAS8, AET-EPO-PAS49-b, or AET-EPO-PAS100-b diluted to a predetermined concentration was added. As a negative control, a cell-free translation solution with untranslated peptide, diluted at the same ratio as the cell-free translation solution with translated AET-EPO-PAS8, AET-EPO-PAS49, or AET-EPO-PAS100, was added. The prepared Substrate Reagent was added to the cells stimulated at room temperature for 3 hours, and the cells were incubated for 60 minutes. The chemiluminescence intensity was quantified with a Nivo plate reader (Perkin Elmer).

[1] abbreviates: Example 22, Table 4, dimers as culture supernatant, read-out: EC50 (g/L) (converted).
[2] abbreviates: Example 35, Table 7, AET-EPO-PAS22 value is that of Example 22.

With “AETGGLYACHMGPMTWVCQPLRGGGGGSGGGGGLYACHMGPMTWVCQPLRG (disulfide 9-18, 37-46) [AET-EPO-GS8]”, the EC50 is 0.103 nM.
As for “AETGGLYACHMGPMTWVCQPLRGAAPAAPAPAAPAAPAPAAPAAPAPAAPAAPAPAAPAAPAPAAPAAPAPAGGLYACHMGPMTWVCQPLRG (disulfide 9-18, 78-87) [AET-EPO-PAS49]”, under “read-out: EC50 (g/L) (converted)”, the EC50 is 0.501 nM.
Regarding “AETGGLYACHMGPMTWVCQPLRGAAPAAPAPGGLYACHMGPMTWVCQPLRG (disulfide 9-18, 37-46) [AET-EPO-PAS8]”, the “maximum activation ability compared with rhEPO” value is “almost the same as that of rhEPO” and the “EpoR activation, concentration dependence” value is “activated EpoR in a concentration-dependent manner”. In addition, under setting [1], the EC50 is 0.036 nM.
As for “AETGGLYACHMGPMTWVCQPLRGAAPAAPAPAAPAAPAPAAPAAPGGLYACHMGPMTWVCQPLRG (disulfide 9-18, 51-60) [AET-EPO-PAS22]”, the “maximum activation ability compared with rhEPO” value was “almost the same as that of rhEPO” and the “EpoR activation, concentration dependence” value was “activated EpoR in a concentration-dependent manner”. Further, the EC50 under setting [1] is 0.0531 nM.
Molecule “AETGGLYACHMGPMTWVCQPLRGGGGGSGGGGSGGGGSGGGGSGGGGLYACHMGPMTWVCQPLRG (disulfide 9-18, 51-60) [AET-EPO-GS22]” showed an EC50 of 0.216 nM.
Take “MAETGGLYACHMGPMTWVCQPLRGAAPAAPAPGGLYACHMGPMTWVCQPLRG (disulfide 10-19, 38-47) [MAET-EPO-PAS8]”: the “EpoR activation, relative activity among linker lengths” value is “higher activity than MAET-EPO-PAS100-b”.

B1: AET-EPO-PAS22-PAS200: stabilized EPO-PAS dimer peptide, PAS200 bound to the C-terminus of AET-EPO-PAS22, SEQ ID NO: 144 (protein)
chain: AETGGLYACHMGPMTWVCQPLRGAAPAAPAPAAPAAPAPAAPAAPGGLYACHMGPMTWVCQPLRGAAPAAPAPAAPAAPAPAAPAAPAPAAPAAPAPAAPAAPAPAAPAAPAPAAPAAPAPAAPAAPAPAAPAAPAPAAPAAPAPAAPAAPAPAAPAAPAPAAPAAPAPAAPAAPAPAAPAAPAPAAPAAPAPAAPAAPAPAAPAAPAPAAPAAPAPAAPAAPAPAAPAAPAPAAPAAPAPAAPAAPAPAAPAAPAPAAPAAPAP
As to B1, the “EC50” value under setting [2] turned out to be 0.85 ng/mL.

B2: MAETGGLYACHMGPMTWVCQPLRGSAPSPSSAPASASAPASPASASASASPASSPASASSASPAASSASPASSGGLYACHMGPMTWVCQPLRG (peptide)
chain: MAETGGLYACHMGPMTWVCQPLRGSAPSPSSAPASASAPASPASASASASPASSPASASSASPAASSASPASSGGLYACHMGPMTWVCQPLRG
modifications: MAET-EPO-PAS49-b; DISULFID (10)..(19) Disulfid bridge between Cys-10 and Cys-19; DISULFID (79)..(88) Disulfid bridge between Cys-79 and Cys-88
With B2, the “EpoR activation, relative activity among linker lengths” value is on record as “higher activity than MAET-EPO-PAS100-b”.

B3: AET-EPO-PAS22-PAS600: stabilized EPO-PAS dimer peptide, PAS600 bound to the C-terminus of AET-EPO-PAS22, SEQ ID NO: 145 (protein)
chain: AETGGLYACHMGPMTWVCQPLRGAAPAAPAPAAPAAPAPAAPAAPGGLYACHMGPMTWVCQPLRGAAPAAPAPAAPAAPAPAAPAAPAPAAPAAPAPAAPAAPAPAAPAAPAPAAPAAPAPAAPAAPAPAAPAAPAPAAPAAPAPAAPAAPAPAAPAAPAPAAPAAPAPAAPAAPAPAAPAAPAPAAPAAPAPAAPAAPAPAAPAAPAPAAPAAPAPAAPAAPAPAAPAAPAPAAPAAPAPAAPAAPAPAAPAAPAPAAPAAPAPAAPAAPAPAAPAAPAPAAPAAPAPAAPAAPAPAAPAAPAPAAPAAPAPAAPAAPAPAAPAAPAPAAPAAPAPAAPAAPAPAAPAAPAPAAPAAPAPAAPAAPAPAAPAAPAPAAPAAPAPAAPAAPAPAAPAAPAPAAPAAPAPAAPAAPAPAAPAAPAPAAPAAPAPAAPAAPAPAAPAAPAPAAPAAPAPAAPAAPAPAAPAAPAPAAPAAPAPAAPAAPAPAAPAAPAPAAPAAPAPAAPAAPAPAAPAAPAPAAPAAPAPAAPAAPAPAAPAAPAPAAPAAPAPAAPAAPAPAAPAAPAPAAPAAPAPAAPAAPAPAAPAAPAPAAPAAPAPAAPAAPAPAAPAAPAPAAPAAPAPAAPAAPAPAAPAAPAPAAPAAPAPAAPAAPAPAAPAAPAP
For the molecule B3, the “EC50” value under setting [2] came out at 0.32 ng/mL.

B4: AET-EPO-PAS100: EPO-PAS dimer peptide linker variant, PAS linker of 100 amino acids, SEQ ID NO: 128 (protein)
chain: AETGGLYACHMGPMTWVCQPLRGAAPAAPAPAAPAAPAPAAPAAPAPAAPAAPAPAAPAAPAPAAPAAPAPAAPAAPAPAAPAAPAPAAPAAPAPAAPAAPAPAAPAAPAPAAPAAPAPAAPAGGLYACHMGPMTWVCQPLRG
B4: for the setting “Example 32, Table 6, rhEPO, AET-EPO-PAS8, AET-EPO-PAS22 values are those in Example 22”, the “EC50” value stood at 6.6 ng/mL.
